In ChEMBL document CHEMBL5465560, “Selectivity Literature for EUbOPEN Chemogenomic Library” (2024):

Tests used:
[1] = biological target: Serine/threonine-protein kinase 32C (Homo sapiens) (UniProt Q86UX6); experiment: Selectivity interaction (KinomeScan (DiscoverX)) EUB0000666a STK32C; details: at 10 µM
[2] = biological target: T1, Dual specificity mitogen-activated protein kinase kinase 3 (Homo sapiens) (UniProt P46734); experiment: Selectivity interaction (ActivX KiNativ screen (kinase selectivity in THP-1 cell lysates)) EUB0000639a MAP2K3; type: subcellular; details: lysate, at 5 µM
T1 sequence (whole entry): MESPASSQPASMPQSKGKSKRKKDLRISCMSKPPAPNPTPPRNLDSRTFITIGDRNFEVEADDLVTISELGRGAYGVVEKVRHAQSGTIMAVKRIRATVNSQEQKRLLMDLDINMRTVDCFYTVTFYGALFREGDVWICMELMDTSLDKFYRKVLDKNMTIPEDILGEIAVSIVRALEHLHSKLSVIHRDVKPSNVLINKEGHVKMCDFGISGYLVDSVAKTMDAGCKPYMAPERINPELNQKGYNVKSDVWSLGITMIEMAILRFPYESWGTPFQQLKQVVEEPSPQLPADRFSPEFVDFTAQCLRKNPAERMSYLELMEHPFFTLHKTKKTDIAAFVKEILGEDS

[3] = biological target: T2, Protein kinase C iota type (Homo sapiens) (UniProt P41743); experiment: Selectivity interaction (ActivX KiNativ screen (kinase selectivity in THP-1 cell lysates)) EUB0000639a PRKCI; type: subcellular; details: lysate, at 0.01 µM
T2 sequence (whole entry): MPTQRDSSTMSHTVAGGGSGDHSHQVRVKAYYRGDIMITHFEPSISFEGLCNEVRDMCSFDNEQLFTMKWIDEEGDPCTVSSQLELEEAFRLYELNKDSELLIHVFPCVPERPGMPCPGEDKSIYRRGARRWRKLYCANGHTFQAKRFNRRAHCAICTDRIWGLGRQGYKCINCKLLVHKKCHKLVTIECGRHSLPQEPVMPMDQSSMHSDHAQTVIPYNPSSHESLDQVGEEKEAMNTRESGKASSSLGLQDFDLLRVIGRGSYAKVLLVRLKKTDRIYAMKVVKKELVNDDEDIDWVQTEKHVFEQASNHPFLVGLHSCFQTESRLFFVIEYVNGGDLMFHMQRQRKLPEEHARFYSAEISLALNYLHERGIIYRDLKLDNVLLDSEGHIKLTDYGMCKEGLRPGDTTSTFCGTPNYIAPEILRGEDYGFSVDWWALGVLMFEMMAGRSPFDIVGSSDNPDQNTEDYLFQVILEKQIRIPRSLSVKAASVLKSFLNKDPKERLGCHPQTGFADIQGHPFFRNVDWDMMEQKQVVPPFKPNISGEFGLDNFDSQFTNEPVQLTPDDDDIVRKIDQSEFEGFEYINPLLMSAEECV

[4] = biological target: High affinity nerve growth factor receptor (Homo sapiens, UniProt P04629); experiment: Selectivity interaction (KinomeScan (DiscoverX)) EUB0000695a NTRK1; details: at 100 nM
Chain of High affinity nerve growth factor receptor (P04629 33-796 limits assumed): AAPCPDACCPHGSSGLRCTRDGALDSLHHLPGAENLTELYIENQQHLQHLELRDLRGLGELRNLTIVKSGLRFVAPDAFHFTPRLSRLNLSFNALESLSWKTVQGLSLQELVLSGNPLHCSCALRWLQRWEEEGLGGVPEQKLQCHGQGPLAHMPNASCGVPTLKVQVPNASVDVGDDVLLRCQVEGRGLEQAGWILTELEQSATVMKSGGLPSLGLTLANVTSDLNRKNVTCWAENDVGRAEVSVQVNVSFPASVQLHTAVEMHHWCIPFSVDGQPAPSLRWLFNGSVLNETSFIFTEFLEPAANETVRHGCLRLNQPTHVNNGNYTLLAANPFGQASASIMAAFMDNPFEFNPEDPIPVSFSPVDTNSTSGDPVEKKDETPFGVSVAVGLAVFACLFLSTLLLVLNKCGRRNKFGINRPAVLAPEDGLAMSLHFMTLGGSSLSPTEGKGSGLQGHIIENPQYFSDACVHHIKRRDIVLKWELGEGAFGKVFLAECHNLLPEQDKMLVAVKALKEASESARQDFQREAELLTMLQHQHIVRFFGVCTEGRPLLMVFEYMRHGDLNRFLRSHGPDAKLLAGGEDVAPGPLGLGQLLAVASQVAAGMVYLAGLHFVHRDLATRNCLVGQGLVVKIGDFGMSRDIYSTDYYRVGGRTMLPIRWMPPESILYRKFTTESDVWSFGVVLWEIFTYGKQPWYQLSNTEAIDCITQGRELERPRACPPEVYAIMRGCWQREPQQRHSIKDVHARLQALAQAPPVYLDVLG

[5] = biological target: Protein kinase C theta type (Homo sapiens, UniProt Q04759); experiment: Selectivity interaction (KinomeScan (DiscoverX)) EUB0000695a PRKCQ; details: at 100 nM
Chain of Protein kinase C theta type (Q04759 whole entry, looked up): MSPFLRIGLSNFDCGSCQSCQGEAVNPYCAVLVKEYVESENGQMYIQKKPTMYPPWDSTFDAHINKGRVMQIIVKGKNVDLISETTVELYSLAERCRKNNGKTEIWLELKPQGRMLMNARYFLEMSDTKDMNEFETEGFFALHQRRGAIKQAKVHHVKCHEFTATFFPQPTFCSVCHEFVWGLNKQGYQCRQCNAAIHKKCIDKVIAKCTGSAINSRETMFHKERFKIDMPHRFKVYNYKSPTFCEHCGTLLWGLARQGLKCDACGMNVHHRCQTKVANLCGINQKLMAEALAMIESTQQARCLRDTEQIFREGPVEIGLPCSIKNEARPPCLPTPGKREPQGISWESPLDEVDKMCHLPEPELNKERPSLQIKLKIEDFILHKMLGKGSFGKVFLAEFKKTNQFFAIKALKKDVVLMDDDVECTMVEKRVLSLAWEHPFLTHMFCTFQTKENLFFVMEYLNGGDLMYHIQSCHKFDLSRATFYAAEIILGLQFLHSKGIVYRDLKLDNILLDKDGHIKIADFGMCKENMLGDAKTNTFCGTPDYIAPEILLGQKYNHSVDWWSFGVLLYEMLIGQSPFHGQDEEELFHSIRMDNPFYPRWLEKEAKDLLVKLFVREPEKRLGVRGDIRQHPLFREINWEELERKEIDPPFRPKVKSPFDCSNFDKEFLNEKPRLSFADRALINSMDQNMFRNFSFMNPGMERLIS

[6] = biological target: Mitogen-activated protein kinase kinase kinase kinase 1 (Homo sapiens) (UniProt Q92918); experiment: Selectivity interaction (KinomeScan (DiscoverX)) EUB0000595a MAP4K1; details: at 10 µM
Chain of Mitogen-activated protein kinase kinase kinase kinase 1 (Homo sapiens) (Q92918 whole entry, looked up): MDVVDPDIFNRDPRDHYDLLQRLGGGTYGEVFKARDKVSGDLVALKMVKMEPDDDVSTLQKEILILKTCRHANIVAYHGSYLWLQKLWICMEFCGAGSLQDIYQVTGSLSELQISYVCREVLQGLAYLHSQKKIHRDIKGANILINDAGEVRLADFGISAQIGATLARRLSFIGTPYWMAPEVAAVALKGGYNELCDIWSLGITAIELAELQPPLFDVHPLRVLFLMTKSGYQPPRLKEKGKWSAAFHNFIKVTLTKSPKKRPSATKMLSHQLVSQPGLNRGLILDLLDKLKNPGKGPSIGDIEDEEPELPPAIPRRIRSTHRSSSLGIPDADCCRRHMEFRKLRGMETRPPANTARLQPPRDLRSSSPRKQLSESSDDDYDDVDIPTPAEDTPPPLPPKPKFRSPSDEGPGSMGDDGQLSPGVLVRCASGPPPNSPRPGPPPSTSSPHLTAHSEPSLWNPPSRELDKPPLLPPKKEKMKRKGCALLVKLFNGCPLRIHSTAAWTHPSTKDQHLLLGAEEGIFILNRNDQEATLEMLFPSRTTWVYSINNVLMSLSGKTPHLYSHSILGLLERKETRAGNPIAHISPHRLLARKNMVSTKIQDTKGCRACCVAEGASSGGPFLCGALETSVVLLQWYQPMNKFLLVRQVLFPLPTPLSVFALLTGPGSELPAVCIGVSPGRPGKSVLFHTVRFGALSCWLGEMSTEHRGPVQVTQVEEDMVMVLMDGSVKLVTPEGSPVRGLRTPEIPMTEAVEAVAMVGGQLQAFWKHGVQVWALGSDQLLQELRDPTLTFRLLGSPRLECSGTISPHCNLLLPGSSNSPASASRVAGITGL

[7] = biological target: T3, Ephrin type-B receptor 3 (Homo sapiens) (UniProt P54753); experiment: Selectivity interaction (KinomeScan (DiscoverX)) EUB0000045b EPHB3
T3 sequence (whole entry): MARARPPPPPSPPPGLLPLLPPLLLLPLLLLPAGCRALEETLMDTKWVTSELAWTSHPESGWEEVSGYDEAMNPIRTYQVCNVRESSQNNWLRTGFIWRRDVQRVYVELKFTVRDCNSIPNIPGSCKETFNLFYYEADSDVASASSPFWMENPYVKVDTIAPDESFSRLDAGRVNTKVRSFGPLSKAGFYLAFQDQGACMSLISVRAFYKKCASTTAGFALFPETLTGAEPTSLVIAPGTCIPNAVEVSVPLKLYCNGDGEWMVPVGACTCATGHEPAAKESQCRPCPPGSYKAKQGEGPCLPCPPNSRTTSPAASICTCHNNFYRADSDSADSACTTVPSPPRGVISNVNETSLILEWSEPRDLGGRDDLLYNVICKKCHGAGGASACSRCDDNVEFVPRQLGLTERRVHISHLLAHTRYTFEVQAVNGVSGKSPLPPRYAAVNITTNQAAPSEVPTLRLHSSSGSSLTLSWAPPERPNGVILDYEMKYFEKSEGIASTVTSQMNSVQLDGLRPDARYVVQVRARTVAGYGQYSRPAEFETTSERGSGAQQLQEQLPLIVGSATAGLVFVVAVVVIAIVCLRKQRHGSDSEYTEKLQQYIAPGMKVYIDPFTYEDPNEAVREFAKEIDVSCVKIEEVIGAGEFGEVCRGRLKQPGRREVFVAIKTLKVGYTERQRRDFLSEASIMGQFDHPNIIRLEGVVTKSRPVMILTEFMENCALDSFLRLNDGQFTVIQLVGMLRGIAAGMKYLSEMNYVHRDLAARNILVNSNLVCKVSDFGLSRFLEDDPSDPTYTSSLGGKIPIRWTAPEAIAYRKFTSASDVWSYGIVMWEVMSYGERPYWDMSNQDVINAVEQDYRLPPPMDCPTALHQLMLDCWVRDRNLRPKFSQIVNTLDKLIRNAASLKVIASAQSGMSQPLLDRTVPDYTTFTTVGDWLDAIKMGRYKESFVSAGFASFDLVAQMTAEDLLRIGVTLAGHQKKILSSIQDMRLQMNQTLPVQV

[8] = biological target: ATP-sensitive inward rectifier potassium channel 11 (Homo sapiens) (UniProt Q14654); experiment: Selectivity interaction (Eurofins CEREP Diversity Profile (receptors and ion channels)) EUB0000279b KCNJ11; details: at 10 µM
Chain of ATP-sensitive inward rectifier potassium channel 11 (Homo sapiens) (Q14654 whole entry): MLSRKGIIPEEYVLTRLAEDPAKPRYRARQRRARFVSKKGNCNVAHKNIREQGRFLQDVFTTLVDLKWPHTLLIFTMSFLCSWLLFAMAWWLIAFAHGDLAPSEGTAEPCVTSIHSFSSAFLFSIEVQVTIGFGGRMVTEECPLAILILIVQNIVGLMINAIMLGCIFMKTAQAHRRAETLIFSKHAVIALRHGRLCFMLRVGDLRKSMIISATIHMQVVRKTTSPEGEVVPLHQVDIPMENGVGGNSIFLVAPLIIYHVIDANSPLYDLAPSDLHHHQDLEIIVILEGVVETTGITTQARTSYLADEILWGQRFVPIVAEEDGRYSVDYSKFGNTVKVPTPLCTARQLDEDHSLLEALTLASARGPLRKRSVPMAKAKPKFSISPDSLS

[9] = biological target: Non-receptor tyrosine-protein kinase TYK2 (Homo sapiens, UniProt P29597); experiment: Selectivity interaction (KinomeScan (DiscoverX)) EUB0001619a TYK2; details: at 1 µM
Chain of Non-receptor tyrosine-protein kinase TYK2 (P29597 whole entry): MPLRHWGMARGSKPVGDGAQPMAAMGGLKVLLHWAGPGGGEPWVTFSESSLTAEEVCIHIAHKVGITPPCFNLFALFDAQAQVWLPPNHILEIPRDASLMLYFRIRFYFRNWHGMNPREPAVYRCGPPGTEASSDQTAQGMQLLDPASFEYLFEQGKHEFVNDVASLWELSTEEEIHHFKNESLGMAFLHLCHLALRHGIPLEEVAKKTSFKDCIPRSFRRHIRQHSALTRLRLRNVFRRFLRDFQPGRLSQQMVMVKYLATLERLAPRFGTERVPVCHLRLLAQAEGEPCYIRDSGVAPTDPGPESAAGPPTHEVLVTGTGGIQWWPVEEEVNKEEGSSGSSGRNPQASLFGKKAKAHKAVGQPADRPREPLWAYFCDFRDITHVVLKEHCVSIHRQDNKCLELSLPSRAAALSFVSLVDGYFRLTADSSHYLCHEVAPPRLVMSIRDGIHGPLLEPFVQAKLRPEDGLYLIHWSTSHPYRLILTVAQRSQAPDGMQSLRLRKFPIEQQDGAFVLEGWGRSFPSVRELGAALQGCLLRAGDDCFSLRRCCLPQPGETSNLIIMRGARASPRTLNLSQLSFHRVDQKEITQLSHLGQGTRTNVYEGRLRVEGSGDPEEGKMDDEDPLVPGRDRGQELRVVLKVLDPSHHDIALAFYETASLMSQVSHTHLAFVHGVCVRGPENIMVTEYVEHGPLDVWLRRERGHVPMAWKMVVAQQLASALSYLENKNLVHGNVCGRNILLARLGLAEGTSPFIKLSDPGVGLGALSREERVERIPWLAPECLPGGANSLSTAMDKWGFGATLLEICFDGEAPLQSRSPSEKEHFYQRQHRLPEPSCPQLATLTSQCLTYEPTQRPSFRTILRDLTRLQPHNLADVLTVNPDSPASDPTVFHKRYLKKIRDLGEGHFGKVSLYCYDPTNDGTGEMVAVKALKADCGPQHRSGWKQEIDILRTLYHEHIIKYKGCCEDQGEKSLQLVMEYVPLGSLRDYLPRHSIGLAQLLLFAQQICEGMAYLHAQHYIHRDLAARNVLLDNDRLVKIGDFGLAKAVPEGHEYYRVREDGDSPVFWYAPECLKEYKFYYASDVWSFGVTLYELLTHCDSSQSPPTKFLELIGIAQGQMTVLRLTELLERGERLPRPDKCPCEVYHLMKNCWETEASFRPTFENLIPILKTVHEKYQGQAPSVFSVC

Chain of Serine/threonine-protein kinase 32C (Homo sapiens) (Q86UX6 whole entry): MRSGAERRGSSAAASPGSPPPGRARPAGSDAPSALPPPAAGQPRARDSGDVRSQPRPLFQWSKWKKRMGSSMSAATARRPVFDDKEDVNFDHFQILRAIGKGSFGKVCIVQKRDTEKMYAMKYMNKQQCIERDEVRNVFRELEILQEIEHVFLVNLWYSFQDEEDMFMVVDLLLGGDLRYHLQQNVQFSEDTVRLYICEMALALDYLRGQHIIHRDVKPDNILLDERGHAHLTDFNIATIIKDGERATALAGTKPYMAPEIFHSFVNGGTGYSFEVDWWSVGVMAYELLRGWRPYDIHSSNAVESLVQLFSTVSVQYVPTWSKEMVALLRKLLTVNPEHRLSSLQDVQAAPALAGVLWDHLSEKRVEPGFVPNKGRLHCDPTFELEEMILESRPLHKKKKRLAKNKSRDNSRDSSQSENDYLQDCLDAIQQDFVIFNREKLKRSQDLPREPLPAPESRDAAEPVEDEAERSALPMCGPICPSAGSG

## O=C(NOC[C@H](O)CO)c1ccc(F)c(F)c1Nc1ccc(I)cc1F
[1]
  % of control: 100%

## CC[C@@H]1[C@H](F)C(=O)N[C@@H]1COc1nccc2cc(C(N)=O)c(OC)cc12 [ZIMLOVISERTIB]
[2]
  % of inhibition: -185%
[3]
  % of inhibition: -6.4%

## Cc1cc(F)c(C(=O)Nc2cccc(-c3nncn3C(C)C)n2)cc1-n1cnc(C2CC2)c1
[4]
  % of control: 79%
[5]
  % of control: 75%

## COCC(=O)NC/C=C/c1ccc2ncnc(Nc3ccc(Oc4ccc(C)nc4)c(C)c3)c2c1 [CP-724714]
[6]
  % of control: 91%

## C=CC(=O)Nc1cc(-n2c(=O)ccc3cnc4ccc(-c5ccc(NS(C)(=O)=O)cc5)cc4c32)ccc1C
[7]; at 1 µM
  % of control: 83%
[7]; at 10 µM
  % of control: 88%

## CC(=O)c1cc(-c2ccccc2OCC2CC2)c2ncccn12
[8]
  % of control: 105%

## N#Cc1cccc(-c2c[nH]c3ncnc(N4CCOCC4)c23)c1
[9]
  % of control: 69%
